Activity calls are given as the source filed them. The calls are words filed in the database; no cut-off is given here.
What was measured:
[1] = target: T1, 11-beta-hydroxysteroid dehydrogenase 1 (Homo sapiens, UniProt P28845); assay: Inhibition of human recombinant 11beta-HSD1 expressed in HEK293 cells assessed as partial reduction of cortisone to cortisol conversion at 3 uM by scintillation counting; assay type: cell-based
Target sequence in this assay (P28845 whole entry, looked up): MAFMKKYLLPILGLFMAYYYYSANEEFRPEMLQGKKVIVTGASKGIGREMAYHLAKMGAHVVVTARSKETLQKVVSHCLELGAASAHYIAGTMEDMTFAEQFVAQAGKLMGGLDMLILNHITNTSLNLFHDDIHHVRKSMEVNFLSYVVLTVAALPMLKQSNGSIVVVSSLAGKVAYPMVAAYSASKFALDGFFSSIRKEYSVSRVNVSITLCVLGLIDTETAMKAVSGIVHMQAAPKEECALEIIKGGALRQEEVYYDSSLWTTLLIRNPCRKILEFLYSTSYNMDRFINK

[2] = target: T2, 11-beta-hydroxysteroid dehydrogenase type 2 (Homo sapiens) (UniProt P80365); assay: Inhibition of human recombinant 11beta-HSD2 expressed in HEK293 cells assessed as reduction of […] conversion at 20 uM by scintillation counting; assay type: cell-based
T2 sequence (whole entry): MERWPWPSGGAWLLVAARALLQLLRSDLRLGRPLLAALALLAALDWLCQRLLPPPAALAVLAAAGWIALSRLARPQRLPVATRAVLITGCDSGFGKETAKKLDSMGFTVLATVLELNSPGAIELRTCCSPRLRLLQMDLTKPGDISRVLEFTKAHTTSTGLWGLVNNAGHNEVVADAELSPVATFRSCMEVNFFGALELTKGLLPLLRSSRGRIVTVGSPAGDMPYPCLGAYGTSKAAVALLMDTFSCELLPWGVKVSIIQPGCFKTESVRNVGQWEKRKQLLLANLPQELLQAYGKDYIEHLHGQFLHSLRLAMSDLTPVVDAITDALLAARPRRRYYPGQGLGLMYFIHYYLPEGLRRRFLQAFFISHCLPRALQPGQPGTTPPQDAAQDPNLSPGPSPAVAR

[3] = target: T1, 11-beta-hydroxysteroid dehydrogenase 1; assay: Inhibition of human recombinant 11beta-HSD1 expressed in HEK293 cells assessed as reduction of cortisone to cortisol conversion by scintillation counting; assay type: cell-based
[4] = target: T1, 11-beta-hydroxysteroid dehydrogenase 1; assay: Inhibition of human recombinant 11beta-HSD1 expressed in HEK293 cells assessed as reduction of cortisone to cortisol conversion at 20 uM by scintillation counting; assay type: cell-based
Target sequence in this assay (P28845 whole entry, looked up): as the sequence (P28845 whole entry, looked up) above

[5] = target: T2, 11-beta-hydroxysteroid dehydrogenase type 2 (Homo sapiens); assay: Inhibition of human recombinant 11beta-HSD2 expressed in HEK293 cells assessed as reduction of […] conversion up to 20 uM by scintillation counting; assay type: cell-based
[6] = target: T1, 11-beta-hydroxysteroid dehydrogenase 1; details: HEK293, 4 uM
Target sequence in this assay (P28845 whole entry, looked up): as the sequence (P28845 whole entry, looked up) above
Description: Inhibition of human recombinant 11beta-HSD1 expressed in HEK293 cells assessed as partial reduction of cortisone to cortisol conversion at 4 uM by scintillation counting

[7] = target: T1, 11-beta-hydroxysteroid dehydrogenase 1; assay: Inhibition of human recombinant 11beta-HSD1 expressed in HEK293 cells assessed as partial reduction of cortisone to cortisol conversion at 1.5 uM by scintillation counting; assay type: cell-based
Target sequence in this assay (P28845 whole entry, looked up): as the sequence (P28845 whole entry, looked up) above

SMILES: C[C@H]1[C@H](C)CC[C@]2(C(=O)O)CC[C@]3(C)C(=CC[C@@H]4[C@@]5(C)C[C@@H](O)C(=O)C(C)(C)[C@@H]5CC[C@]43C)[C@H]12
- inhibition [1]: Active
- Activity [2]: inactive

SMILES: C[C@@H]1CC[C@]2(C(=O)O)CC[C@]3(C)C(=CC[C@@H]4[C@@]5(C)C[C@@H](O)[C@H](OC(=O)/C=C/c6ccc(O)cc6)C(C)(C)[C@@H]5CC[C@]43C)[C@@H]2[C@]1(C)O
- IC50 ([3]; hek293): Not Active
- Activity [2]: inactive

SMILES: C[C@H](CC(=O)C[C@@H](C)[C@H]1C[C@H](O)[C@@]2(C)C3=C(C(=O)C[C@]12C)[C@@]1(C)CCC(=O)C(C)(C)[C@@H]1C[C@@H]3O)C(=O)O
- inhibition [4]: 46%
- inhibition [2]: 76%

SMILES: COC(=O)[C@]12CC[C@@H](C)[C@H](C)[C@H]1C1=CC[C@@H]3[C@@]4(C)C[C@@H](O)[C@@H](O)C(C)(C)[C@@H]4CC[C@@]3(C)[C@]1(C)CC2
- IC50 ([3]; read-out: IC50): 5.2 µM
- Activity [2]: inactive

SMILES: CC[C@H](CC[C@@H](C)[C@H]1CC[C@H]2[C@@H]3CC=C4C[C@@H](O)CC[C@]4(C)[C@H]3CC[C@]12C)C(C)C
- Activity [2]: inactive

SMILES: C[C@H]1[C@H](C)CC[C@]2(CO)CC[C@]3(C)C(=CC[C@@H]4[C@@]5(C)CC[C@H](O)C(C)(C)[C@@H]5CC[C@]43C)[C@H]12 [UVAOL]
- IC50 ([3]; hek293): Not Active
- Activity [2]: inactive

SMILES: C[C@H]1[C@H](C)CC[C@]2(C(=O)O)CC[C@]3(C)C(=CC[C@@H]4[C@@]5(C)C[C@@H](O)[C@H](O)C(C)(C)[C@@H]5CC[C@]43C)[C@H]12 [COROSOLIC ACID]
- inhibition [5]: inactive
- inhibition [3]: Dose-dependent effect
- IC50 ([3]; read-out: IC50): 0.81 µM

SMILES: C[C@H]1[C@H](C)CC[C@]2(C)CC[C@]3(C)C(=CC(=O)[C@@H]4[C@@]5(C)CC[C@@H](O)[C@](C)(C(=O)O)[C@@H]5CC[C@]43C)[C@H]12
- inhibition [4]: 52%
- inhibition [2]: 68%

SMILES: COC(=O)[C@]12CC[C@@H](C)[C@H](C)[C@H]1C1=CC[C@@H]3[C@@]4(C)CC[C@H](O)C(C)(C)[C@@H]4CC[C@@]3(C)[C@]1(C)CC2
- Activity [2]: inactive

SMILES: C[C@@H]1CC[C@]2(C(=O)O)CC[C@]3(C)C(=CC[C@@H]4[C@@]5(C)C[C@@H](O)[C@H](OC(=O)/C=C\c6ccc(O)cc6)C(C)(C)[C@@H]5CC[C@]43C)[C@@H]2[C@]1(C)O
- IC50 ([3]; hek293): Not Active
- Activity [2]: inactive

SMILES: CC(=O)O[C@@H]1CC[C@@]2(C)[C@@H](CC[C@]3(C)[C@@H]2C(=O)C=C2[C@@H]4[C@@H](C)[C@H](C)CC[C@]4(C)CC[C@]23C)[C@@]1(C)C(=O)O
- inhibition [4]: 63%
- inhibition [2]: 52%

SMILES: C[C@@H]1CC[C@]2(C(=O)O)CC[C@]3(C)C(=CC[C@@H]4[C@@]5(C)C[C@@H](O)[C@H](O)C(C)(C)[C@@H]5CC[C@]43C)[C@@H]2[C@]1(C)O [TOMENTIC ACID]
- IC50 ([3]; hek293): Not Active
- Activity [2]: inactive

SMILES: C[C@H]1[C@H](C)CC[C@]2(C(=O)O)CC[C@]3(C)C(=CC(=O)[C@@H]4[C@@]5(C)CC[C@H](O)C(C)(C)[C@@H]5CC[C@]43C)[C@H]12
- IC50 ([3]; read-out: IC50): 2.06 µM

SMILES: COC(=O)[C@]12CC[C@@H](C)[C@@](C)(O)[C@H]1C1=CC[C@@H]3[C@@]4(C)C[C@@H](O)[C@H](O)C(C)(C)[C@@H]4CC[C@@]3(C)[C@]1(C)CC2 [TORMENTIC ACID METHYL ESTER]
- inhibition [6]: Active
- IC50 ([3]; read-out: IC50): 9.4 µM
- Activity [2]: inactive

SMILES: COC(=O)[C@]12CCC(C)(C)C[C@H]1C1=CC[C@@H]3[C@@]4(C)C[C@@H](O)[C@H](O)C(C)(C)[C@@H]4CC[C@@]3(C)[C@]1(C)CC2 [MASLINIC ACID METHYL ESTER]
- IC50 ([3]; hek293): Not Active
- Activity [2]: inactive

SMILES: CC(=O)O[C@H]1CC[C@]2(C)[C@H]3C(=O)C=C4[C@@H]5[C@@H](C)[C@H](C)CC[C@]5(C(=O)O)CC[C@@]4(C)[C@]3(C)CC[C@H]2C1(C)C [11-OXOURSOLIC ACID ACETATE]
- IC50 ([3]; read-out: IC50): 1.35 µM

SMILES: C[C@H]1[C@H](C)CC[C@]2(C(=O)O)CC[C@]3(C)C(=CC[C@@H]4[C@@]5(C)CC[C@H](O)C(C)(C)[C@@H]5CC[C@]43C)[C@H]12
- inhibition [7]: Active
- Activity [2]: inactive

SMILES: COC(=O)[C@]12CC[C@@H](C)[C@H](C)[C@H]1C1=CC[C@@H]3[C@@]4(C)C[C@@H](O)[C@H](O)C(C)(C)[C@@H]4CC[C@@]3(C)[C@]1(C)CC2 [COROSOLIC ACID METHYL ESTER]
- IC50 ([3]; hek293): Not Active
- Activity [2]: inactive

Source: ChEMBL document CHEMBL1156911 (Bioorg Med Chem, 2010)
